Results from the supplement of paper PMC5908809.

Tests used:
[1] = tested on: normal NK cells expanded with K562-aAPC; assay: percent inhibition of viability; higher = more inhibition; conditions: 72 h, IL-2 2.5 ng/mL
Method: (§1)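 Drug sensitivity and resistance testing on K562-aAPC-expanded normal NK cells: 5 concentrations (10-fold steps over a 10,000-fold range), 72 h at 37 °C, viability by CellTiter-Glo normalised to DMSO and benzethonium chloride controls; DSS from the fitted curve.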

SNK-6 (IL-2 2.5 ng/mL) [2] = assay: drug sensitivity score (DSS) (DSS units); higher = more sensitive; extreme values may be limits of the assay; conditions: 72 h
YT (IL-2 2.5 ng/mL) [3] = assay: as above; conditions: 72 h
KAI3 (IL-2 2.5 ng/mL) [4] = assay: as above; conditions: 72 h
NK-92 (IL-2 2.5 ng/mL) [5] = assay: as above; conditions: 72 h
IMC-1 (IL-2 20 ng/mL) [6] = assay: as above; conditions: 72 h
NKL (IL-2 2.5 ng/mL) [7] = assay: as above; conditions: 72 h
[8] = tested on: normal primary NK cells, pool 2 (3 donors) (IL-2 2.5 ng/mL); assay: as above; conditions: 72 h
[9] = tested on: normal primary NK cells, pool 3 (3 donors) (IL-2 2.5 ng/mL); assay: as above; conditions: 72 h
[10] = tested on: normal primary NK cells, pool 1 (3 donors) (IL-2 2.5 ng/mL); assay: as above; conditions: 72 h
[11] = tested on: normal primary NK cells, pool 1 (3 donors), resting (IL-2 0 ng/mL); assay: as above; conditions: 72 h
KHYG-1 (IL-2 2.5 ng/mL) [12] = assay: as above; conditions: 72 h
NK-YS (IL-2 2.5 ng/mL) [13] = assay: as above; conditions: 72 h
DERL-7 (IL-2 2.5 ng/mL) [14] = assay: as above; conditions: 72 h
[15] = tested on: normal NK cells expanded with K562-aAPC; assay: as above; conditions: 72 h; IL-2 2.5 ng/mL
Method: as §1

SNK-6 (IL-2 2.5 ng/mL) [16] = assay: percent inhibition of viability; higher = more inhibition; conditions: 72 h
YT (IL-2 2.5 ng/mL) [17] = assay: as above; conditions: 72 h
KAI3 (IL-2 2.5 ng/mL) [18] = assay: as above; conditions: 72 h
NK-92 (IL-2 2.5 ng/mL) [19] = assay: as above; conditions: 72 h
IMC-1 (IL-2 20 ng/mL) [20] = assay: as above; conditions: 72 h
NKL (IL-2 2.5 ng/mL) [21] = assay: as above; conditions: 72 h
[22] = tested on: normal primary NK cells, pool 2 (3 donors) (IL-2 2.5 ng/mL); assay: as above; conditions: 72 h
[23] = tested on: normal primary NK cells, pool 3 (3 donors) (IL-2 2.5 ng/mL); assay: as above; conditions: 72 h
[24] = tested on: normal primary NK cells, pool 1 (3 donors) (IL-2 2.5 ng/mL); assay: as above; conditions: 72 h
[25] = tested on: normal primary NK cells, pool 1 (3 donors), resting (IL-2 0 ng/mL); assay: as above; conditions: 72 h
KHYG-1 (IL-2 2.5 ng/mL) [26] = assay: as above; conditions: 72 h
NK-YS (IL-2 2.5 ng/mL) [27] = assay: as above; conditions: 72 h
DERL-7 (IL-2 2.5 ng/mL) [28] = assay: as above; conditions: 72 h

Cc1c(C(=O)Nc2ccc(N3C[C@@H](C)O[C@@H](C)C3)nc2)cccc1-c1ccc(OC(F)(F)F)cc1 [Sonidegib] (max concentration tested 10000 nM)
percent inhibition of viability [%]
Conditions | 1 nM | 10 nM | 100 nM | 1000 nM | 10000 nM
DERL-7 (IL-2 2.5 ng/mL) [28] | -6.39 | 0.97 | 3.22 | 7.44 | 7.71
IMC-1 (IL-2 20 ng/mL) [20] | -2.05 | 0.95 | 10.7 | 7.33 | 66.2
KAI3 (IL-2 2.5 ng/mL) [18] | -9.76 | 2.17 | -0.83 | -2.67 | 26.2
KHYG-1 (IL-2 2.5 ng/mL) [26] | 1.09 | -0.52 | 4.83 | 5.39 | 33.4
NK-92 (IL-2 2.5 ng/mL) [19] | 5.8 | 1.52 | 11.2 | 33.5 | 79.3
NK-YS (IL-2 2.5 ng/mL) [27] | -0.38 | 2.73 | 7.41 | 11.1 | 31.1
NKL (IL-2 2.5 ng/mL) [21] | -6.67 | 3.73 | -0.64 | 6.28 | 26.8
SNK-6 (IL-2 2.5 ng/mL) [16] | 4.68 | 24.7 | 23.1 | 15.3 | 25.6
YT (IL-2 2.5 ng/mL) [17] | 1.1 | 5.23 | 7.91 | 6.65 | 37
[1] | -1.35 | -1.33 | -0.97 | 6.62 | 11.9
[22] | -5.58 | -3.94 | 1.51 | -3.08 | -2.7
[23] | -16.4 | -5.96 | 3.9 | -2.57 | -0.38
[24] | 2.22 | -1.01 | 1.87 | -6.02 | -0.78
[25] | 7.84 | -5.48 | 2.43 | -23.8 | -13.6

Conditions | drug sensitivity score
DERL-7 (IL-2 2.5 ng/mL) [14] | 0
IMC-1 (IL-2 20 ng/mL) [6] | 4.85
KAI3 (IL-2 2.5 ng/mL) [4] | 0.87
KHYG-1 (IL-2 2.5 ng/mL) [12] | 2.43
NK-92 (IL-2 2.5 ng/mL) [5] | 8.23
NK-YS (IL-2 2.5 ng/mL) [13] | 2.3
NKL (IL-2 2.5 ng/mL) [7] | 2.01
SNK-6 (IL-2 2.5 ng/mL) [2] | 10.6
YT (IL-2 2.5 ng/mL) [3] | 2.89
[8] | 0
[9] | 0
[10] | 0
[11] | 0
[15] | 0.28

CNC(=O)c1cc(Oc2ccc(NC(=O)Nc3ccc(Cl)c(C(F)(F)F)c3)cc2)ccn1 [Sorafenib] (max concentration tested 1000 nM)
percent inhibition of viability [%]
Conditions | 0.1 nM | 1 nM | 10 nM | 100 nM | 1000 nM
DERL-7 (IL-2 2.5 ng/mL) [28] | -14.3 | 2.59 | 4.15 | 1.1 | 25.2
IMC-1 (IL-2 20 ng/mL) [20] | -6.25 | -2.7 | -8.4 | -3.64 | -1.65
KAI3 (IL-2 2.5 ng/mL) [18] | 2.87 | 5.97 | 0.72 | 2.84 | -4.41
KHYG-1 (IL-2 2.5 ng/mL) [26] | -1.09 | 0 | -1.1 | 2.71 | -0.82
NK-92 (IL-2 2.5 ng/mL) [19] | -2.2 | -1.4 | -3.13 | -5.91 | 25.7
NK-YS (IL-2 2.5 ng/mL) [27] | -0.65 | -1.62 | -0.99 | 3.14 | 5.95
NKL (IL-2 2.5 ng/mL) [21] | -18.1 | -17.9 | -14.8 | -9.31 | -11.3
SNK-6 (IL-2 2.5 ng/mL) [16] | 9.25 | 14.7 | 5.19 | 17.7 | 30.7
YT (IL-2 2.5 ng/mL) [17] | -0.23 | -2.47 | 0.91 | 1.22 | 3.17
[1] | -0.62 | -4.84 | 0.63 | -4.73 | -7.05
[22] | -8.52 | -3.3 | -11.4 | -7 | -14.1
[23] | -4.53 | -9.01 | -3.28 | -8.55 | -2.67
[24] | -10 | -8.22 | -3.22 | -10.4 | -2.85
[25] | -6.78 | -15.6 | 0.71 | 9.47 | 20.5

Conditions | drug sensitivity score
DERL-7 (IL-2 2.5 ng/mL) [14] | 1.11
IMC-1 (IL-2 20 ng/mL) [6] | 0
KAI3 (IL-2 2.5 ng/mL) [4] | 0
KHYG-1 (IL-2 2.5 ng/mL) [12] | 0
NK-92 (IL-2 2.5 ng/mL) [5] | 0.73
NK-YS (IL-2 2.5 ng/mL) [13] | 0
NKL (IL-2 2.5 ng/mL) [7] | 0
SNK-6 (IL-2 2.5 ng/mL) [2] | 3.94
YT (IL-2 2.5 ng/mL) [3] | 0
[8] | 0
[9] | 0
[10] | 0
[11] | 1.53
[15] | 0

O=[N+]([O-])c1ccc2c(c1)S(=O)(=O)C=C2 [Stattic] (max concentration tested 50000 nM)
percent inhibition of viability [%]
Conditions | 5 nM | 50 nM | 500 nM | 5000 nM | 50000 nM
DERL-7 (IL-2 2.5 ng/mL) [28] | -5.69 | 0.09 | 8.66 | 100 | 100
IMC-1 (IL-2 20 ng/mL) [20] | -3.55 | -2.13 | -12.2 | -14.1 | 99.9
KAI3 (IL-2 2.5 ng/mL) [18] | -6.42 | 3 | 11.7 | 101 | 100
KHYG-1 (IL-2 2.5 ng/mL) [26] | -5.88 | -5.42 | -4.14 | 99.4 | 99.5
NK-92 (IL-2 2.5 ng/mL) [19] | -16.4 | -10.7 | -9.15 | 100 | 99.3
NK-YS (IL-2 2.5 ng/mL) [27] | -2.31 | -3.08 | -1.75 | 31.7 | 98.3
NKL (IL-2 2.5 ng/mL) [21] | -2.42 | -9.08 | -17.6 | 52.9 | 97.8
SNK-6 (IL-2 2.5 ng/mL) [16] | 4.25 | -11.5 | -24.7 | 100 | 100
YT (IL-2 2.5 ng/mL) [17] | -7.41 | -5.02 | -6.62 | 99.5 | 99.9
[1] | -4.23 | -7.77 | -7.3 | 100 | 100
[22] | -5.68 | 1.61 | 1.47 | 96.5 | 99.9
[23] | -6.16 | -7.86 | -9.75 | 99.1 | 101
[24] | -14.2 | -14 | 11.9 | 98.5 | 100
[25] | -24.1 | -39.5 | 15.7 | 93.9 | 100

Conditions | drug sensitivity score
DERL-7 (IL-2 2.5 ng/mL) [14] | 19.4
IMC-1 (IL-2 20 ng/mL) [6] | 4.71
KAI3 (IL-2 2.5 ng/mL) [4] | 19.9
KHYG-1 (IL-2 2.5 ng/mL) [12] | 17.5
NK-92 (IL-2 2.5 ng/mL) [5] | 17.3
NK-YS (IL-2 2.5 ng/mL) [13] | 9.96
NKL (IL-2 2.5 ng/mL) [7] | 11.8
SNK-6 (IL-2 2.5 ng/mL) [2] | 16.6
YT (IL-2 2.5 ng/mL) [3] | 17.3
[8] | 17.7
[9] | 17.1
[10] | 19.9
[11] | 19.4
[15] | 17.4
